Measured values taken from ChEMBL document CHEMBL5329206 (Bioorg Med Chem, 2023).
The source made the active and inactive calls. No cut-off for these calls is given here. Where a SMILES comes first, the peptide text is derived from it.

Columns and labels:
[1] = system: SARS-CoV-2; experiment: Antiviral activity against SARS-CoV-2; assay type: functional, organism-based; details: Severe acute respiratory syndrome coronavirus 2
[2] = biological target: T1, Cathepsin K (Homo sapiens, UniProt P43235); experiment: Inhibition of human Cathepsin K at 20 uM measured after 30 mins by fluorescence based microplate reader analysis relative to control; assay type: toxicity; details: human Cathepsin K enzyme
T1 sequence (P43235 whole entry): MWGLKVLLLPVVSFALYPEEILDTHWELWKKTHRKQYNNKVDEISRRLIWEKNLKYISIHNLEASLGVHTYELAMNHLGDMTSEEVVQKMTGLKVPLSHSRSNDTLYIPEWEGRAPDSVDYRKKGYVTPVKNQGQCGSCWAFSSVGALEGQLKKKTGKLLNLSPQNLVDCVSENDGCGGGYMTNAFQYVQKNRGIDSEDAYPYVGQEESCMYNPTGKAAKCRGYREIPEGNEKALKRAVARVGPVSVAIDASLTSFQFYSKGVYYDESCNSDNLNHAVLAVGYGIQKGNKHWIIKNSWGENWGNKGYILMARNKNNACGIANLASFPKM

[3] = biological target: Replicase polyprotein 1ab (Severe acute respiratory syndrome coronavirus 2) (UniProt P0DTD1); experiment: Inhibition of SARS-CoV-2 MPro using protease substrate at 1 uM preincubated with enzyme for 10 mins followed by substrate addition and measured after 5 mins by FRET based assay; details: time 15.0 min
[4] = Cytotoxicity against African green monkey Vero E6 cells assessed as cell growth inhibition measured after 48 hrs by CCK8 assay; assay type: toxicity, cell-based, Vero C1008; details: chlorocebus sabaeus
[5] = biological target: Cathepsin B (Homo sapiens, UniProt P07858); experiment: Inhibition of human Cathepsin B at 20 uM measured after 30 mins by fluorescence based microplate reader analysis relative to control; assay type: toxicity; details: human Cathepsin B enzyme
[6] = system: SARS-CoV-2; experiment: Antiviral activity against SARS-CoV-2 infected in African green monkey Vero E6 cells assessed as inhibition of viral infection preincubated for 1 hr followed by incubation in methylcellulose medium for 25 to 26 hrs by TrueBlue based EliSpot analysis; assay type: functional, organism-based; details: Severe acute respiratory syndrome coronavirus 2, Vero C1008
[7] = biological target: T1, Cathepsin K; experiment: Inhibition of human Cathepsin K measured after 30 mins by fluorescence based microplate reader analysis relative to control; assay type: toxicity
[8] = biological target: Replicase polyprotein 1ab (Severe acute respiratory syndrome coronavirus 2, UniProt P0DTD1); experiment: Inhibition of SARS-CoV-2 MPro using protease substrate preincubated with enzyme for 10 mins followed by substrate addition and measured after 5 mins by FRET based assay
[9] = biological target: Replicase polyprotein 1ab (Severe acute respiratory syndrome coronavirus 2) (UniProt P0DTD1); experiment: Inhibition of SARS-CoV-2 MPro using protease substrate at 5 uM preincubated with enzyme for 10 mins followed by substrate addition and measured after 5 mins by FRET based assay; details: time 15.0 min
[10] = biological target: Replicase polyprotein 1ab (Severe acute respiratory syndrome coronavirus 2) (UniProt P0DTD1); experiment: Inhibition of SARS-CoV-2 MPro using protease substrate at 5 uM preincubated with enzyme for 10 mins followed by substrate addition and measured after 5 mins in presence of 4 mM DTT by FRET based assay; details: time 15.0 min
[11] = biological target: Replicase polyprotein 1ab (Severe acute respiratory syndrome coronavirus 2) (UniProt P0DTD1); experiment: Covalent inhibition of SARS-Cov-2 MPro using protease substrate at 1 uM preincubated with enzyme for 5 to 80 mins followed by substrate addition and measured every 10s for 10 mins by FRET based assay; details: time 15-90 min, TDE = time-dependent effect

Row | Compound | inhibition [3] | IC50 [8] [nM] | also measured
1 | O=C(NC1CCCC1)C(=O)[C@H](C[C@@H]1CCNC1=O)NC(=O)[C@@H]1[C@H]2CCC[C@H]2CN1C(=O)[C@@H](NC(=O)C(F)(F)F)C1CCCCC1 | – | – | EC50 [1]: 95 nM
2 | CC(C)(F)C[C@H](N[C@@H](c1ccc(-c2ccc(S(C)(=O)=O)cc2)cc1)C(F)(F)F)C(=O)NC1(C#N)CC1 [ODANACATIB] | – | – | inhibition at 0.5 h, 20 µM [2]: 96%
3 | O=c1c2ccccc2[se]n1C1CCN(S(=O)(=O)c2cccnc2)CC1 | 101% | 268 | CC50 at 48 h [4]: 13300 nM; inhibition at 0.5 h, 20 µM [5]: 4%; EC50 [6]: > 13300 nM; IC50 [7]: > 20000 nM
4 | NS(=O)(=O)c1ccc(C(=O)N2CCC(n3[se]c4ccccc4c3=O)CC2)cc1 | 88.3% | 550 | –
5 | O=c1c2ccccc2[se]n1Cc1ccc2[nH]ccc2c1 | 32.6% | – | –
6 | CS(=O)(=O)Nc1ccc(C(=O)Nc2ccc(-n3[se]c4ccccc4c3=O)cc2)cc1 | inactive | – | –
7 | O=c1c2ccccc2[se]n1Cc1ccncc1 | 97.4% | 287 | CC50 at 48 h [4]: 55700 nM; inhibition at 0.5 h, 20 µM [5]: 87%; EC50 [6]: > 20000 nM; IC50 [7]: > 20000 nM; inhibition [9]: Active; inhibition [10]: inactive; inhibition at 0.5 h, 20 µM [2]: 42%
8 | O=c1c2ccccc2[se]n1C1CCNCC1 | 57.5% | – | –
9 | O=c1c2ccc([N+](=O)[O-])cc2[se]n1-c1ccccc1 | 49.2% | – | –
10 | CC(C)(C)OC(=O)N1CCC(n2[se]c3ccccc3c2=O)CC1 | 85.2% | 417 | –
11 | O=c1c2ccccc2[se]n1-c1ccccc1 [EBSELEN] | 88.3% | – | CC50 at 48 h [4]: 70500 nM; inhibition at 0.5 h, 20 µM [5]: 62%; EC50 [6]: 3780 nM; IC50 [7]: > 20000 nM; inhibition [9]: Active; inhibition [11]: Tde; inhibition [10]: inactive; inhibition at 0.5 h, 20 µM [2]: 38%
12 | O=c1c2ccccc2[se]n1C1CCN(S(=O)(=O)C2CC2)CC1 | 96.2% | 356 | CC50 at 48 h [4]: 27500 nM; EC50 [6]: > 20000 nM
13 | Nc1ccc2c(=O)n(-c3ccccc3)[se]c2c1 | 87% | 322 | inhibition [9]: Active; inhibition [10]: inactive
14 | CC(C)(C)OC(=O)Nc1ccc(-n2[se]c3ccccc3c2=O)cc1 | 32.1% | – | –
15 | O=C(OCc1ccccc1)N1CCC(n2[se]c3ccccc3c2=O)CC1 | 71.2% | – | –
16 | CCOC(=O)c1ccc(-n2[se]c3ccccc3c2=O)cc1 | 68.4% | – | inhibition at 0.5 h, 20 µM [2]: 5%
17 | O=c1c2cc([N+](=O)[O-])ccc2[se]n1-c1ccccc1 | 18.8% | – | –
18 | O=c1c2ccccc2[se]n1C1CCN(S(=O)(=O)c2cccc(Cl)c2)CC1 | 24.7% | – | –
19 | CC(=O)N[C@@H](CC(C)C)C(=O)N[C@H](C(=O)N[C@H](C=O)CCCCN)C(C)C (Ac-Leu-Val-Lys-aldehyde) | – | – | inhibition at 0.5 h, 20 µM [5]: 99%
20 | O=C(Nc1ccc(-n2[se]c3ccccc3c2=O)cc1)C1CC1 | 95.5% | 490 | –
21 | O=c1c2ccccc2[se]n1Cc1cccnc1 | 80.6% | 459 | –
22 | O=c1c2ccccc2[se]n1Cc1ccccc1 | 95.5% | 364 | CC50 at 48 h [4]: > 100000 nM; EC50 [6]: 8010 nM
23 | Nc1ccc2[se]n(-c3ccccc3)c(=O)c2c1 | 21.8% | – | –
24 | CN(C)S(=O)(=O)Nc1ccc(-n2[se]c3ccccc3c2=O)cc1 | 91.8% | 233 | CC50 at 48 h [4]: 9910 nM; EC50 [6]: > 9910 nM; inhibition [9]: Active; inhibition [11]: Tde; inhibition [10]: inactive
25 | O=c1c2ccccc2[se]n1C1CCN(S(=O)(=O)c2cccs2)CC1 | 67.8% | – | –
26 | O=C(Nc1ccc2c(=O)n(-c3ccccc3)[se]c2c1)c1cccs1 | 38.9% | – | –
27 | O=c1c2ccccc2[se]n1Cc1ccc2ccccc2c1 | 34.6% | – | –
28 | O=c1c2ccccc2[se]n1-c1ccc(NS(=O)(=O)C2CC2)cc1 | 89.7% | 528 | inhibition [9]: Active; inhibition [10]: inactive
